Reference: patent US7491835B2, “Prodrugs of amino acids with affinity for the α2δ-protein” (Pfizer Inc, priority 2003, dated 2009)

Assays:
Caco-2 cells = assay: Caco-2 cell transport and efflux (permeability) study
Description: (§1) Mannitol was used as a negative marker since it appears to be absorbed through the paracellular rather than the transcellular pathway. Cell transport, and efflux studies were conducted with Caco-2 cells grown on Snapwells between 22 to 28 days postseeding. Typically, 10 mM MES buffer (pH 6.5) with 5 mM KCl, 135 mM NaCl, 1.8 mM CaCl2, and 5 mM D-glucose was used for the AP side and 10 mM MOPS (pH 7.4) with 5 mM KCl, 132.5 mM NaCl, 1.8 mM CaCl2, and 5 mM D-glucose was used for the BL side. After washing the monolayers, drug-free media at the appropriate pH (pH 7.4 or 6.5) were first added to both compartments to allow the cells to equilibrate for approximately 15 min at 37° C. Transport studies were then conducted using 1.5 mL of transport media in the apical side and 2.5 mL in the basolateral side. The donor solution containing the probe compound was added to either the apical or basolateral compartment. Plates were placed in a shaking incubator (Boekel Scientific, Feasterville, Pa.) at 37° C. during the experiments. Transport in both apical-to-basolateral (A-to-B) and basolateral-to-apical (B-to-A) directions was measured for each drug. Aliquots were removed from the nondosing compartment at predetermined time points and replaced with fresh medium to maintain a constant volume. During studies with radiolabeled compounds, 100 uL samples were taken at each time point. The apparent permeability coefficients (Papp) were calculated using the following equation: Papp=dQ/dtX1/CoX1/A, where dQ/dt is the permeability rate, Co is the initial concentration in the donor compartment, and A is the surface area of the membrane. Flux rates (dQ/dt×1/A) were calculated by plotting the amount transported per unit area as a function of time and determining the slope of the line using linear regression.

[1] = Vogel conflict model of anxiety; format: in vivo; details: 30 mg/kg, PO
Text: The In vivo activity of compounds of this invention can be determined in animal models of hyperalgesia (See Sluka, K., et al. 2001, “Unilateral Intramuscular Injections Of Acidic Saline Produce A Bilateral, Long-Lasting Hyperalgesia”, Muscle Nerve 24: 37-46; Dixon, W., 1980, “Efficient analysis of experimental observations”. Ann Rev Pharmacol Toxicol 20:441-462; Randall L. O. and Selitto J. J., “A Method For Measurement Of Analgesic Activity On Inflamed Tissue,” Arch. Int. Pharmacodyn, 1957;4:409-419; Hargreaves K., Dubner R., Brown F., Flores C., and Joris J. “A New And Sensitive Method For Measuring Thermal Nociception In Cutaneous Hyperalgesia”. Pain. 32:77-88, 1988.), anxiety (Vogel J. R., Beer B., and Clody D. E., “A Simple And Reliable Conflict Procedure For Testing Anti-Anxiety Agents”, Psychopharmacologia 21:1-7, 1971),
The In vivo activity of a compound of this invention was determined in an animal model of anxiety as set forth in Vogel J R, Beer B., and Clody D E, “A Simple And Reliable Conflict Procedure For Testing Anti-Anxiety Agents”, Psychopharmacologia 21:1-7, 1971).

in vitro = details: human, Caco-2
Description: as §1

For `CCCC[C@@H](C)C[C@H](CNC(=O)[C@@H](N)CC(C)C)CC(=O)O` [3S-[(2S-Amino-4-methyl-pentanoylamino)-methyl]-5R-methyl-nonanoic acid], the Substrate for efflux (Caco-2 cells; Caco-2, 10 uM, concluded from ratio B to A/A to B) was “unlikely to be a substrate for efflux”, the “A to B Peff * 10^−6” value (Caco-2 cells; Caco-2, apical to basal, apical pH 6.5, basolateral pH 7.4, 37° C.) was 0.74 10^−6 and the “Caco-2 permeability, apical to basolateral direction” value (Caco-2 cells; concentration of 10 uM) was 0.74 ×10⁻⁶ cm/s.
For `CCC[C@@H](C)C[C@H](CNC(=O)[C@@H](N)CC(C)C)CC(=O)O` [3S-[(2S-Amino-4-methyl-pentanoylamino)-methyl]-5R-methyl-octanoic acid], the “Anxiolytic Activity, percent reference activity compared to pregabalin” value [1] was 138.10%.
For `OC[C@@H](O)[C@@H](O)[C@H](O)[C@H](O)CO` [Mannitol], the Papp A→B (in vitro) was 1.81 ×10⁻⁶ cm/s, the Papp B→A (in vitro) was 1.41 ×10⁻⁶ cm/s and the efflux ratio (in vitro) was 0.78.
Work on `COCCc1ccc(OCC(O)CNC(C)C)cc1` (stereo not drawn) [Metoprolol] yielded a Papp A→B (in vitro) of 8.74 ×10⁻⁶ cm/s and a Papp B→A (in vitro) of 20.3 ×10⁻⁶ cm/s.
